Source: patent publication US20120289501A1, “Benzene-fused 6-membered oxygen-containing heterocyclic derivatives of bicyclic heteroaryls” (NOVARTIS AG, priority 2009, published 2012)
pIC50: −log10 of the molar value.

Biological target: IGF1R (Homo sapiens, UniProt P08069)
Test: Cellular IGF-1R assay: inhibition of IGF1R phosphorylation in transduced Hek293 cells, capture ELISA (MSD)
Type: cell-based
Parameters: Hek293 cells transduced with the corresponding receptors; expressed in transfected cells; host or cells: Hek293 (Hek293-IGF1R)
Procedure: In this assay the activity of the compounds of the invention against Insulin-like growth factor I (IGF-1) induced autophosphorylation of the IGF-IR is determined. The assay is conducted as follows: Compound-mediated inhibition of IGF1R and INSR phosphorylation in Hek293 cells transduced with the corresponding receptors is assessed in a capture ELISA format using the MSD (Meso Scale Discovery) platform. Briefly, 30′000 cells washed and diluted in starvation medium (DMEM high glucose supplemented with 0.1% BSA) are seeded in 90 μL per well into 96-well plates pre-coated with poly-D-lysine (0.1 mg/mL in PBS/0). After 24 h incubation at 37° C. and 5% CO2, dose-response effects are determined with 3-fold serial compound dilutions, starting at 10 μM. The final vehicle concentration is 0.1% DMSO in all wells. Following pre-incubation with compounds for 1 h, receptor phosphorylation is triggered by a 10 min exposure to 1.0 ng/μL IGF for Hek293-IGF1R cells, and 5.0 ng/μL insulin for Hek293-InsR cells. Cell lysis is achieved by addition of 80 μL MSD lysis buffer per aspirated well, incubation on ice for 20 min, and a freeze-thaw cycle. Target phosphorylation is then assessed by transferring volumes corresponding to approx. 6 μg Hek293-IGF1R or 0.6 μg Hek293-InsR lysates to MSD assay plates pre-coated with total-IGF1R or total-InsR Abs, respectively. After incubation for 2 h at rt, wells are exposed for 1 hr to a rabbit monoclonal antibody (CST #3024, 1:1000) detecting pIGF1R(Tyr1135/1136) as well as pINSR(Tyr1150/1151). Immune complexes are detected by a SULFO-Tag™-coupled anti-rabbit IgG antibody in the presence of 150 μL MSD read-buffer. Light emission at 620 nm triggered by application of electric current is recorded on a MSD SectorImager 6000. Acquired raw data (mean Ru-ECL units) are processed in an Excel analysis template. The plate blank (MSD lysis buffer) is subtracted from all data points. The effect of a particular test compound concentration on receptor phosphorylation is expressed relative to the window defined by ligand-stimulated vs unstimulated control cells (set as 100%). IC50 values [nM] are determined using 4-parametric curve-fitting (XLfit software, V4.3.2). Alternatively, the assay can be conducted with a slightly different format; Compound-mediated inhibition of IGF-1R and InsR phosphorylation in HEK293 cells overexpressing the corresponding receptors were assessed by quantitative Western blot using an Odyssey infrared imager as readout.
Compound-mediated inhibition of IGF1R and INSR phosphorylation in Hek293 cells transduced with the corresponding receptors is assessed in a capture ELISA format using the MSD (Meso Scale Discovery) platform. Briefly, 30′000 cells washed and diluted in starvation medium (DMEM high glucose supplemented with 0.1% BSA) are seeded in 90 μL per well into 96-well plates pre-coated with poly-D-lysine (0.1 mg/mL in PBS/O). After 24 h incubation at 37° C. and 5% CO2, dose-response effects are determined with 3-fold serial compound dilutions, starting at 10 μM. The final vehicle concentration is 0.1% DMSO in all wells. Following pre-incubation with compounds for 1 h, receptor phosphorylation is triggered by a 10 min exposure to 1.0 ng/μL IGF for Hek293-IGF1R cells, and 5.0 ng/μL insulin for Hek293-InsR cells. Cell lysis is achieved by addition of 80 μL MSD lysis buffer per aspirated well, incubation on ice for 20 min, and a freeze-thaw cycle. Target phosphorylation is then assessed by transferring volumes corresponding to approx. 6 μg Hek293-IGF1R or 0.6 μg Hek293-lnsR lysates to MSD assay plates pre-coated with total-IGF1R or total-lnsR Abs, respectively. After incubation for 2 h at rt, wells are exposed for 1 hr to a rabbit monoclonal antibody (CST #3024, 1:1000) detecting pIGF1R(Tyr1135/1136) as well as pINSR(Tyr1150/1151). Immune complexes are detected by a SULFO-Tag™-coupled anti-rabbit IgG antibody in the presence of 150 μL MSD read-buffer. […]

Sequence of IGF1R (P08069 31-1367): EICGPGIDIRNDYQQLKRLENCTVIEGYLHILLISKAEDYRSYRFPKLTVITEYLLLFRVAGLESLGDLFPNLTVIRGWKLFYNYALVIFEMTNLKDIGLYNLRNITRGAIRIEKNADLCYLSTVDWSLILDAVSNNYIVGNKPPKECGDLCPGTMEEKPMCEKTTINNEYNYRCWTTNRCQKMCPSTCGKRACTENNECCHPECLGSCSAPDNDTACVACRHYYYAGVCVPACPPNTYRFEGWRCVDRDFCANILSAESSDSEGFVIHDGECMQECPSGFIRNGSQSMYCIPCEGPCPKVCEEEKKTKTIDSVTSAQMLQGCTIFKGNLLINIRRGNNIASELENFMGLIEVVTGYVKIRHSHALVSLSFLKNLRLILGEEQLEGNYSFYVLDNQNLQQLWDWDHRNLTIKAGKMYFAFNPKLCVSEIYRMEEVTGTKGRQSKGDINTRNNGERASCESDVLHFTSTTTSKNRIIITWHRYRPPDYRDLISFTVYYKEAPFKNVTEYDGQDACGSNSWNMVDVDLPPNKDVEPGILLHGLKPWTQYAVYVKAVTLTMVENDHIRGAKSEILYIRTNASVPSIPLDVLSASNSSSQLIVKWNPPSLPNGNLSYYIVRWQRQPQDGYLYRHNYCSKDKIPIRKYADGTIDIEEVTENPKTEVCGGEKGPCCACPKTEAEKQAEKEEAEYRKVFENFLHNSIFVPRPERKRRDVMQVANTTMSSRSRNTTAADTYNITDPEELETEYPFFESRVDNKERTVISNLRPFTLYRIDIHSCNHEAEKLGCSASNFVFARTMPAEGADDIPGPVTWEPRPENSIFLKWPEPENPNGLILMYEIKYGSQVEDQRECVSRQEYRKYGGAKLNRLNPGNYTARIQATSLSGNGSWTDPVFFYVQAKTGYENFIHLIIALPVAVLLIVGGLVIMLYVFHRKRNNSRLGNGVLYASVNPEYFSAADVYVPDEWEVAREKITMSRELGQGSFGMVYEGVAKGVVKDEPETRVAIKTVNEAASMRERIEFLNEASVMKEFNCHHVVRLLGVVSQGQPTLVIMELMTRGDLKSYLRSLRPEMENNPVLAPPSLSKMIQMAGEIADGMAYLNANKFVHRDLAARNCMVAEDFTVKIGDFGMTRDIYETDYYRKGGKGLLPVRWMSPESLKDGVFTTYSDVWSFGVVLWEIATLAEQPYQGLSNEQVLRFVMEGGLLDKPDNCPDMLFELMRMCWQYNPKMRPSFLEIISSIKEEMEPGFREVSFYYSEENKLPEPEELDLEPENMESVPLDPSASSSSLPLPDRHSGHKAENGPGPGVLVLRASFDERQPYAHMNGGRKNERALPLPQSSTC

Compound | pIC50
CC(=O)N[C@H]1CC[C@@H](n2cc(-c3ccc4c(c3)OC(c3ccccc3)CC4)c3c(N)ncnc32)CC1 (mixture of isomers) [Example 55, (±)-N-(cis-4-(4-amino-5-(2-phenylchroman-7-yl)-7H-pyrrolo[2,3-d]pyrimidin-7-yl)cyclohexyl)acetamide] | 6.97
Nc1nccn2c1c(-c1ccc3c(c1)O[C@@H](c1ccccc1)C=C3)nc2[C@H]1C[C@@H](CO)C1 (relative stereo) [Example 22, (R,S)-{cis-3-[8-Amino-1-(2-phenyl-2H-chromen-7-yl)-imidazo[1,5-a]pyrazin-3-yl]-cyclobutyl}-methanol] | 6.75
Nc1ncnc2c1c(-c1ccc3c(c1)OC(c1ccccn1)CC3)cn2[C@H]1C[C@@H](CN2CCS(=O)(=O)CC2)C1 (mixture of isomers) [Example 54, (±)-7-(cis-3-(1,1-dioxo-thiomorpholin-4-ylmethyl)cyclobutyl)-5-(2-(pyridin-2-yl)chroman-7-yl)-7H-pyrrolo[2,3-d]pyrimidin-4-amine] | 7.35
Nc1ncnc2c1c(-c1ccc3c(c1)O[C@H](c1ccccc1)CC3)cn2[C@H]1C[C@@H](CN2CCS(=O)(=O)CC2)C1 [Example 25, (S)-7-[cis-3-(1,1-dioxo-thiomorpholin-4-ylmethyl)-cyclobutyl]-5-(2-phenyl-chroman-7-yl)-7H-pyrrolo[2,3-d]pyrimidin-4-ylamine] | 8.05
CCOCC1CCc2ccc(-c3cn([C@H]4C[C@@H](CN5CC[S+]([O-])CC5)C4)c4ncnc(N)c34)cc2O1 (relative stereo) [Example 50, 5-(2-Ethoxymethyl-chroman-7-yl)-7-[cis-3-(1-oxo-thiomorpholin-4-ylmethyl)-cyclobutyl]-7H-pyrrolo[2,3-d]pyrimidin-4-ylamine] | 7.44
Nc1ncnc2c1c(-c1ccc3c(c1)OC(c1ccccn1)CC3)cn2C1CC(CN2CC3CC2CS3(=O)=O)C1 [Example 62, 7-[cis-3-((S,S)-2,2-Dioxo-2λ6-thia-5-aza-bicyclo[2,2,1]kept-5-ylmethyl)-cyclobutyl]-5-(2-pyridin-2-yl-chroman-7-yl)-7H-pyrrolo[2,3-d]pyrimidin-4-ylamine] | 7.16
Nc1ncnc2c1c(-c1ccc3c(c1)OC(C1CCCO1)CC3)cn2C1CC(CN2CC3CC2CS3(=O)=O)C1 (mixture of isomers) [Example 66, 7-[cis-3-((S,S)-2,2-dioxo-2λ6-thia-5-aza-bicyclo[2,2,1]hept-5-ylmethyl)-cyclobutyl]-5-[2-trans-(tetrahydro-furan-2-yl-chroman-7-yl)-7H-pyrrolo[2,3-d]pyrimidin-4-ylamine] | 7.62
Nc1ncnc2c1c(-c1ccc3c(c1)O[C@@H](c1ccccc1)CC3)cn2[C@H]1C[C@@H](CO)C1 [Example 12, {cis-3-[4-Amino-5-((R)-2-phenyl-chroman-7-yl)-pyrrolo[2,3-d]pyrimidin-7-yl]-cyclobutyl}-methanol] | 7.26
NC(=O)[C@@H]1CCCN1C[C@H]1C[C@@H](c2nc(-c3ccc4c(c3)OC(c3ccccc3)CC4)c3c(N)nccn32)C1 (mixture of isomers) [Example 4, 1-{cis-3,8-Amino-1-((R)-2-phenyl-chroman-7-yl)-imidazo[1,5-a]pyrazin-3-yl]-cyclobutylmethyl}-(S)-pyrrolidine-2-carboxylic acid amide and 1-{cis-3-[8-amino-1-((S)-2-phenyl-chroman-7-yl)-imidazo[1,5-a]pyrazin-3-yl]-cyclobutylmethyl}-(S)-pyrrolidine-2-carboxylic acid amide] | 6.46
Nc1ncnc2c1c(-c1ccc3c(c1)OC(c1ccccc1)C=C3)cn2[C@H]1C[C@@H](CO)C1 (mixture of isomers) [Example 23, (R,S)-{cis-3-[4-Amino-5-(2-phenyl-2H-chromen-7-yl)-pyrrolo[2,3-d]pyrimidin-7-yl]-cyclobutyl}-methanol] | 7.92
Nc1ncnc2c1c(-c1ccc3c(c1)OC(c1ccccc1)CC3)cn2C1CC(O)(CO)C1 (single isomer, unassigned) [Example 41, (Z)-3-K-Amino-5-(2-phenyl-chroman-7-yl)-pyrrolo[2,3-d]pyrimidin-7-yl]-1-hydroxymethyl-cyclobutanol] | 6.84 to 7.36
